Test results taken from patent US20230270805A1, “A COMPOSITION COMPRISING AN EXTRACT OF ALDER TREE OR THE ISOLATED COMPOUNDS THEREFROM FOR TREATING AND PREVENTING SKELETON MUSCLE-RELATED DISORDER AND THE USE THEREOF” (Sookmyung Women's University Indusutry-Academic Cooperation …, priority 2020, published 2023).

What was measured:
[1] = test system: C2C12 cells; assay: Immunofluorescence staining (anti-MHC/DAPI) of multinucleated myotubes, myoblast differentiation; format: cell-based, mouse
Experimental: (§1) Various concentrations of inventive extract (1, 10, 100 ng/ml) were treated to C2C12 cells (mouse myoblast cell line; Cat^#CRL-1771, ATCC) in differentiation medium (2% horse serum-containing DMEM, Cat^#11965-084, Gibco) for 3 days to induce their differentiation.
(§2) After removing respective differentiation medium, the differentiated myoblast cells in the differentiation medium were washed with phosphate buffer solution twice and fixed with 4% paraformaldehyde (0141, BBC Biochemical) for 20 mins. After washing the cells with phosphate buffer solution twice again, the cells were treated with 0.1% tritonX-100 (2315025, Sigma) for 20 mins. After washing the cells with phosphate buffer solution twice again, the cells were blocked with 5% horse serum solution (16050122, Gibco) and mouse anti-MHC (MAB4470, R&D systems) was added thereto to react for 12 hours at 4° C.
(§3) After finishing the reaction, the cells were washed with phosphate buffer solution more than 3 times and then the level of MHC expression was analyzed using by Alexa Flouor 568-conjuagted secondary anti-mouse (A-21144, MicoProbes) and DAPI (D9542, Sigma). The test result of immunofluorescence on MHC-positive myotubes was visualized with red color and the DAPI-labelled nucleus was visualized with blue color.
(§4) Various inventive compounds (10 nM) were treated to C2C12 cells (mouse myoblast cell line; Cat^#CRL-1771, ATCC) in differentiation medium (2% horse serum-containing DMEM, Cat^#11965-084, Gibco) for 3 days to induce their differentiation.
(§5) The change of MHC expression caused by inventive compound in myotube cell was determined by immunostaining method using by mouse anti-MHC and anti-mouse IgG2b Alexa-fluor 568 (See FIG. 7) (Chem. Biol. Interact. 2016, 248:60).
(§6) Various concentrations of inventive compound 1 (1, 10 and 100 nM) were treated to C2C12 cells (mouse myoblast cell line; Cat^#CRL-1771, ATCC) in differentiation medium (2% horse serum-containing DMEM, Cat^#11965-084, Gibco) for 3 days to induce their differentiation.

[2] = test system: myoD; assay: Western blot of myoD expression in differentiating C2C12 myoblasts; format: cell-based, mouse; details: 3 days differentiation
Experimental: Various concentrations of inventive extract (1, 10, 100 ng/ml) were treated to C2C12 cells (mouse myoblast cell line; Ca^#CRL-1771, American Type Culture Collection (ATCC)) and cell lysates obtained from the differentiated cells, were subjected to Western Blot analysis to evaluate the expressed level of MHC and myoD proteins (The result was shown in FIG. 1A). the change of MHC expression caused by inventive extract in myotube cell was determined by immunostaining method using by mouse anti-MHC and anti-mouse IgG2b Alexa-fluor 568 (See FIG. 1B) (Chem. Biol. Interact. 2016, 248:60).
as §1
For Western blot analysis, about 3×10^4 mouse myoblast cell cells were incubated in 60 mm plates for 24 hours, and each sample was added to the differentiation medium for 3 days to differentiate. The protein extract was obtained from the differentiated cells using by lysis buffer [25 mM Tris-HCl (pH 7.5), 100 mM NaCl, 1% NP-40, 1% sodium deoxycholate, 0.1% sodium dodecyl sulfate (SDS), and protease inhibitor cocktail, Calbiochem, Darmstadt, Germany). […]
In order to investigate the myogenic effect of the inventive compound 1 obtained in Example, various concentrations of inventive compound 1 (1, 10 and 100 nM) were treated to C2C12 cells (mouse myoblast cell line; Cat^#CRL-1771, American Type Culture Collection (ATCC)) and cell lysates obtained from the differentiated cells, were subjected to Western Blot analysis to evaluate the expressed level of MHC and myoD proteins (The result was shown in FIG. 6). The change of MHC expression caused by inventive compound in myotube cell was determined by immunostaining method using by mouse anti-MHC and anti-mouse IgG2b Alexa-fluor 568 (See FIG. 7) (Chem. Biol. Interact. 2016, 248:60). […]

[3] = test system: p38 MAPK; assay: Western blot of phosphorylated p38 MAPK in differentiated myotubes; format: cell-based, mouse; details: 3 days after differentiation
Experimental: Various concentrations of inventive extract (1, 10, 100 ng/ml) were treated to myoblast cells and the expressed level of p38 MAPK protein in the lysates of differentiated myotubes obtained at 3 days after the differentiation, was determined according to Western blot analysis.
Primary rabbit-anti phosphorylation p38 MAPK (Cat #9212, Cell Signaling Technology) was reacted with anti-rabbit secondary antibody (goat anti-rabbit IgG-HRP, sc-2004, SantaCruz) to determine the express level of phosphorylated p38 MAPK and primary rabbit-anti-p38 MAPK (Cat #9212, Cell Signaling Technology) was used to determine the expressed amount of total p38 MAPK (loading control)
Various concentrations of inventive compound 1 (1, 10, 100 nM) were treated to myoblast cells and the expressed level of p38 MAPK protein in the lysates of differentiated myotubes obtained at 3 days after the differentiation, was determined according to Western blot analysis.

[4] = test system: MHC; assay: Western blot of MHC expression in differentiating C2C12 myoblasts; format: cell-based, mouse
Experimental: as §1
(§7) For Western blot analysis, about 3×10^4 mouse myoblast cell cells were incubated in 60 mm plates for 24 hours, and each sample was added to the differentiation medium for 3 days to differentiate. The protein extract was obtained from the differentiated cells using by lysis buffer [25 mM Tris-HCl (pH 7.5), 100 mM NaCl, 1% NP-40, 1% sodium deoxycholate, 0.1% sodium dodecyl sulfate (SDS), and protease inhibitor cocktail, Calbiochem, Darmstadt, Germany). The protein extract (25 μg) was performed to SDS-polyacrylamide gel electorphoresis (PAGE) and transferred to polyvinylidene fluoride (PVDF) membranes.
Primary mouse anti-MHC (sc-376157, Santa Cruz) or anti-myoD (sc-32758, Santa Cruz) was conjugated to the blots at 4° C., for 12 hrs and then conjugated with anti-mouse secondary antibody conjugated to Horseradish peroxidase (goat anti-mouse IgG-HRP, sc-2005, SantaCruz) to analyze the amount of MHC protein by chemiluminescence method. Pan-cadherin (Cat #3678, Sigma) was used as a loading control in the experiment.
as §4
as §7, with “electrophoresis” for “electorphoresis”
as §5, §6

[5] = test system: C2C12 myotube cells treated with dexamethasone; assay: Immunofluorescence staining of multinucleated MHC-positive myotubes after dexamethasone-induced muscle loss; format: cell-based, mouse; details: dexamethasone (12 hours) + compound 10 nM; control group = 1
Experimental: as §2, §3
About 3×10^4 mouse myoblast cell cells (C2C12; CRL-1772 ATCC) were incubated in 60 mm plates for 24 hours, and various inventive compounds (10 nM) were added to the differentiation medium (0273, Gibco) for 3 days to differentiate.

[6] = Body weight in dexamethasone animal model of muscle loss; format: in vivo, mouse; details: Dexa + oxymetholone 10 mg/kg oral daily
Experimental: (§8) Dexamethasone, a synthetic glucocorticoid, was injected subcutaneously into C57/BL6 mouse mice to establish an animal model of muscle loss and following experiment was performed.
(§9) To establish an in vivo model of muscle loss, 6 weeks-old male C57/BL6 mice (Raon Bio, 6 weeks old, weight range: 32-36 g) were acclimated for one-week, and then weighed animals determined to be healthy during the acclimatization period. The mice close to the average weight were selected using a simple random sampling method and were classified into five groups, namely, (a) a control group, (b) a muscle loss control group (treated with dexamethasone 1 mg/kg), (c) test sample group treated with inventive extract 250 mg/kg and dexamethasone, (d) test sample group treated with inventive extract 500 mg/kg and dexamethasone, and (e) positive control treated with oxymetholone (Celltrion Co. Ltd, ATC #A14AA05, 10 mg/kg) and dexamethasone.
(§10) The inventive Extract and oxymetholone were administered once to the mice daily for 4 weeks and dexamethasone was injected subcutaneously for 10 days from 10 days before the end of co-treatment of inventive extract and oxymetholone.
(§11) Both of inventive extract and oxymetholone were forcibly administered orally using zonde for oral administration after holding and fixing the skin of the animal's poll area, and dexamethasone was injected slowly subcutaneously after inserting a syringe into the dorsal skin fold of the animal held on the thumb and index finger, slightly aspirating whether it was injected normally, and confirming that no blood came out.
The body weight of every animal was measured once a week for 4 weeks from the day of inventive extract administration.

[7] = test system: C57/BL6 mice; assay: Weight of muscle mass, epididymal fat and liver in dexamethasone animal model of muscle loss; format: in vivo, mouse; details: Dexa + oxymetholone 10 mg/kg oral daily, autopsy at 4 weeks
Experimental: as §8, §9, §10, §11
The mice were anesthetized with anesthetic to prevent the movement of experimental animals and sacrificed to minimize pain to dissect them. All instruments used during the experiment were sterilized and disinfected and their liver and epididymis fat were harvested.
The gastrocnemius muscle and soleus muscle of the mice were separated, washed in saline, drained, and weighed.
After autopsy at 4 weeks after administration, the weight of liver and Epididymis fat was weighed to calculate weight-to-weight to compare the relative differences between the organ's weight in the groups.

[8] = test system: C57/BL6 mice; assay: Treadmill test in dexamethasone animal model of muscle loss; format: in vivo, mouse; details: Dexa + oxymetholone 10 mg/kg oral daily
Experimental: as §8, §9, §10, §11
The determination was performed on the 14th and 28th days after the administration of test sample.

[9] = test system: C57/BL6 mice; assay: Grip strength test in dexamethasone animal model of muscle loss; format: in vivo, mouse; details: Dexa + oxymetholone 10 mg/kg oral daily
Experimental: as §8, §9, §10, §11
The grip strength of mice was determined as follows; after grabbing the animal's tail and placing it on the grid, the front foot and body were pulled at the same speed until the front foot and body were held at the grid with the front paw, and the average value was calculated after three experimental repetitions. The determination was performed on the 14th and 28th days after the administration of test sample.

[10] = compound 10 nM, 3 days differentiation (Experimental Example 3)
[11] = compound 10 nM, 3 days differentiation, control = 1 (Experimental Example 3)

For `COc1cc(/C=C/C(=O)OC[C@H](Cc2ccc(O)c(OC)c2)[C@H](COC(=O)/C=C/c2ccc(O)c(OC)c2)Cc2ccc(O)c(OC)c2)ccc1O` [Compound 1, (−)-(2R,3R)-1,4-O-diferuloylsecoisolariciresinol], the “The number of muscle fibers that are multinucleated with five or more nuclei and expressed with MHC (fold)” value (shortened to “The number … (fold)”) [1, 10] was 2.8 fold, the “The number … (fold)” value ([1]; compound 1 at 1 nM (Experimental Example 4)) was 1.5 fold and the “The number … (fold)” value ([1]; compound 1 at 10 nM (Experimental Example 4)) was 9.0 fold. For the same compound, the “The number … (fold)” value ([1]; compound 1 at 100 nM (Experimental Example 4)) was 8.0 fold, the “myoD/pan-cadherin expression (fold)” value ([2]; compound 1 at 1 nM) was 1.2 fold and the “myoD/pan-cadherin expression (fold)” value ([2]; compound 1 at 10 nM) was 1.3 fold. The “myoD/pan-cadherin expression (fold)” value ([2]; compound 1 at 100 nM) was 1.7 fold, the “phosphorylated-p38/p38 expressed amount (fold)” value (shortened to “phosphorylated-p38/p38 … (fold)”) ([3]; compound 1 at 1 nM) was 10.6 fold and the “phosphorylated-p38/p38 … (fold)” value ([3]; compound 1 at 10 nM) was 14.8 fold. For the same compound, the “phosphorylated-p38/p38 … (fold)” value ([3]; compound 1 at 100 nM) was 15.0 fold, the “MHC/pan-cadherin expression (fold)” value [4, 11] was 1.5 fold and the “MHC/pan-cadherin expression (fold)” value ([4]; compound 1 at 1 nM, 3 days differentiation (Experimental Example 4)) was 1.2 fold. For the same compound, the “MHC/pan-cadherin expression (fold)” value ([4]; compound 1 at 10 nM, 3 days differentiation (Experimental Example 4)) was 6.0 fold, the “MHC/pan-cadherin expression (fold)” value ([4]; compound 1 at 100 nM, 3 days differentiation (Experimental Example 4)) was 4.6 fold and the “The number … (fold)” value [5] was 0.7 fold.
For `O=C(CCc1ccc(O)c(O)c1)CC(O)CCc1ccc(O)c(O)c1` (stereo not shown) [Compound 4, Hirsutanonol], the “The number … (fold)” value [1, 10] was 3.1 fold, the “MHC/pan-cadherin expression (fold)” value [4, 11] was 1.9 fold and the “The number … (fold)” value [5] was 0.7 fold.
For `C[C@]12C/C(=C/O)C(=O)C[C@@H]1CC[C@@H]1[C@@H]2CC[C@@]2(C)[C@H]1CC[C@]2(C)O` [Oxy, oxymetholone], the body weight ([6]; 0 week) was 22.26 ± 0.71 gram, the body weight ([6]; 1 week) was 22.49 ± 0.72 gram and the body weight ([6]; 2 weeks) was 23.25 ± 0.90 gram. The body weight ([6]; 3 weeks) was 23.22 ± 0.93 gram, the body weight ([6]; 4 weeks) was 23.20 ± 0.78^b gram and the “absolute weight, epididymal fat” value [7] was 0.43 ± 0.09^# gram. For the same compound, the “absolute weight, liver” value [7] was 1.16 ± 0.07 gram, the “absolute weight, calf muscle” value ([7]; gastrocnemius) was 0.251 ± 0.016 gram and the “absolute weight, fluke muscle” value ([7]; soleus) was 0.023 ± 0.002^d gram. For the same compound, the “motility (treadmill)” value ([8]; 2 weeks) was 774.75 ± 66.11 meter, the “motility (treadmill)” value ([8]; 4 weeks) was 773.93 ± 39.64 meter and the grip strength ([9]; 2 weeks) was 1.00 ± 0.06 N. For the same compound, the grip strength ([9]; 4 weeks) was 1.25 ± 0.16^a N.
